From patent US10544146B2, “Bicyclic compounds and their use as antibacterial agents and β-lactamase inhibitors” (priority 2011, dated 2020)

Tests used:
Assay type in all cases: cell-based
[1] = test system: E. coli JMI 11103; experiment: MIC, antibacterial and synergistic activity; conditions: substance alone
[2] = test system: K. pneumo JMI 4088; experiment: MIC, antibacterial and synergistic activity; conditions: substance alone
[3] = test system: K. pneumo JMI 2674; experiment: MIC, antibacterial and synergistic activity; conditions: substance alone
[4] = test system: E. coli JMI 10770; experiment: MIC, antibacterial and synergistic activity; conditions: substance alone
[5] = test system: E. coli JMI 10768; experiment: MIC, antibacterial and synergistic activity; conditions: substance alone
[6] = test system: E. coli ATCC 25922; experiment: MIC, antibacterial and synergistic activity
Procedure: (§1) In the Tables 10-12, compounds of the present invention were tested in combination with various antibiotics against metallo β-lactamase producing bacteria.

[7] = test system: E. cloacae JMI 36; experiment: MIC, antibacterial and synergistic activity; conditions: substance alone
Procedure: as §1

[8] = test system: E. coli JMI 10767; experiment: MIC, antibacterial and synergistic activity; conditions: substance alone
Procedure: as §1

[9] = test system: P. aerug JMI 149; experiment: MIC, antibacterial and synergistic activity; conditions: substance alone
Procedure: as §1

[10] = test system: K. pneumo JMI 2693; experiment: MIC, antibacterial and synergistic activity; conditions: substance alone
Procedure: as §1

[11] = test system: E. coli JMI 2692; experiment: MIC, antibacterial and synergistic activity; conditions: substance alone
Procedure: as §1

[12] = test system: K. pneumo JMI 2699; experiment: MIC, antibacterial and synergistic activity; conditions: substance alone
Procedure: as §1

[13] = test system: A. baumanii JMI 2659; experiment: MIC, antibacterial and synergistic activity; conditions: substance alone
Procedure: as §1

[14] = test system: K. pneumo JMI 2697; experiment: MIC, antibacterial and synergistic activity; conditions: substance alone
Procedure: as §1

[15] = test system: E. coli JMI 2671; experiment: MIC, antibacterial and synergistic activity; conditions: substance alone
Procedure: as §1

[16] = test system: K. pneumo JMI 2681; experiment: MIC, antibacterial and synergistic activity; conditions: substance alone
[17] = test system: K. pneumo JMI 4106; experiment: MIC, antibacterial and synergistic activity; conditions: K. pneumo JMI 4106, KPC-3, TEM-1, SHV-12, SHV-141; substance alone
[18] = test system: E. coli JMI 4103; experiment: MIC, antibacterial and synergistic activity; conditions: substance alone
[19] = test system: E. coli JMI 2665; experiment: MIC, antibacterial and synergistic activity; conditions: for MIC alone: substance alone
[20] = test system: K. pneumo JMI 2673; experiment: MIC, antibacterial and synergistic activity; conditions: substance alone
[21] = test system: P. aerug JMI 2686; experiment: MIC, antibacterial and synergistic activity; conditions: substance alone
[22] = test system: E. coli JMI 4080; experiment: MIC, antibacterial and synergistic activity; conditions: substance alone
[23] = test system: K. pneumo JMI 4109; experiment: MIC, antibacterial and synergistic activity; conditions: substance alone
[24] = test system: metallo β-lactamase producing bacteria; experiment: MIC in combination with various antibiotics against metallo β-lactamase producing bacteria (Tables 10-12); conditions: substance alone
Procedure: as §1

[25] = K. pneumo JMI 4088, KPC-3 (Cpase)
[26] = K. pneumo JMI 2674, CTX-M15 (ESBL)
[27] = K. pneumo JMI 2693, NDM-1 (Cpase)
[28] = K. pneumo JMI 2699, VIM-1, CTX-M3
[29] = K. pneumo JMI 2697, IMP-4 (Cpase)
[30] = K. pneumo JMI 2681, Oxa-48 (Cpase)
[31] = K. pneumo JMI 2673, CTX-M14 (ESBL)
[32] = P. aerug JMI 2686, KPC-2 (Cpase)
[33] = K. pneumo JMI 4109, SHV-1, SHV-12

O=C(NNC(=O)[C@H]1CC[C@H]2CN1C(=O)N2OS(=O)(=O)O)C1CC1 (stereo in doubt) [Ex. 47, (2R,5S)-N′-(cyclopropylcarbonyl)-7-oxo-6-(sulfooxy)-1,6-diazabicyclo[3.2.1]octane-2-carbohydrazide]
8 µg/mL: MIC ([4]; Escherichia coli, JMI10770, E. coli JMI 10770, CTX-M15 (Hyper ESBL)) | MIC ([8]; Escherichia coli, JMI10767, E. coli JMI 10767, Wt) | MIC ([11]; Escherichia coli, JMI2692, E. coli JMI 2692, NDM-1, TEM-1, CTX-M-15) | MIC ([15]; Escherichia coli, JMI2671, E. coli JMI 2671, VIM-19 (Cpase))
16 µg/mL: MIC ([1]; Escherichia coli, JMI11103, E. coli JMI 11103, CTX-M15 (Intermediate ESBL)) | MIC ([5]; Escherichia coli, JMI10768, E. coli JMI 10768, CTX-M15 (Weak ESBL)) | MIC [12, 28] | MIC [17]
4 µg/mL: MIC ([22]; Escherichia coli, JMI4080, E. coli JMI 4080, Tem-10)
> 16 µg/mL: MIC [2, 25] | MIC [3, 26] | MIC ([6]; Escherichia coli, ATCC25922, E. coli ATCC 25922, enzyme Wt; substance alone) | MIC ([7]; Enterobacter cloacae, JMI36, E. cloacae JMI 36, P99) | MIC ([9]; P. aerug JMI 149, Bla+++D+) | MIC [10, 27] | MIC ([13]; Acinetobacter baumannii, JMI2659, A. baumanii JMI 2659, Ges-14 (Cpase)) | MIC [14, 29] | MIC [16, 30] | MIC [20, 31] | MIC [21, 32]
2 µg/mL: MIC ([18]; Escherichia coli, JMI4103, E. coli JMI 4103, KPC-2, Tem-1, CMY-Type) | MIC ([19]; Escherichia coli, JMI2665, read-out: MIC alone) | MIC [23, 33]

C[C@@H](O)[C@H]1C(=O)N2C(C(=O)O)=C(S[C@@H]3CN[C@H](C(=O)N(C)C)C3)[C@H](C)[C@H]12 [Meropenem, meropenem]
8 µg/mL: MIC alone [10, 27] | MIC alone ([10]; K. pneumo JMI 2693, enzyme NDM-1 (Cpase)) | MIC alone ([24]; Enterobacter aerogenes isolate 47683, VIM-12) | MIC alone ([24]; Enterobacter cloacae isolate 3686, IMP-1) | MIC alone ([24]; Escherichia coli isolate 49, NDM-1) | MIC alone ([24]; Klebsiella pneumoniae isolate 16, VIM-5) | MIC alone ([24]; Serratia marcescens isolate 35, IMP-4) | MIC alone ([24]; Serratia marcescens isolate 36098, IMP-19)
256 µg/mL: MIC alone ([11]; E. coli JMI 2692, NDM-1, TEM-1, CTX-M-15) | MIC alone ([11]; E. coli JMI 2692, enzyme NDM-1, TEM-1, CTX-M-15)
1 µg/mL: MIC alone ([24]; Providencia stuartii isolate 26582, VIM-1)
2 µg/mL: MIC alone ([24]; Enterobacter cloacae isolate 4, VIM-6) | MIC alone ([24]; Enterobacter cloacae isolate 1068, VIM-2) | MIC alone ([24]; Enterobacter cloacae isolate 1471, VIM-1) | MIC alone ([24]; Klebsiella oxytoca isolate 31141, VIM-23)
16 µg/mL: MIC alone ([24]; Citrobacter freundii isolate 49469, NDM-1) | MIC alone ([24]; Enterobacter cloacae isolate 10, IMP-26) | MIC alone ([24]; Enterobacter cloacae isolate 25, IMP-4)
64 µg/mL: MIC alone ([13]; A. baumanii JMI 2659, Ges-14 (Cpase)) | MIC alone ([13]; A. baumanii JMI 2659, enzyme Ges-14 (Cpase)) | MIC alone [14, 29] | MIC alone ([14]; K. pneumo JMI 2697, enzyme IMP-4 (Cpase)) | MIC alone ([15]; E. coli JMI 2671, VIM-19 (Cpase)) | MIC alone ([15]; E. coli JMI 2671, enzyme VIM-19 (Cpase)) | MIC alone ([24]; Enterobacter aerogenes isolate 8397, VIM-1) | MIC alone ([24]; Escherichia coli isolate 53749, NDM-1) | MIC alone [16, 30] | MIC alone ([16]; K. pneumo JMI 2681, enzyme Oxa-48 (Cpase)) | MIC alone ([18]; E. coli JMI 4103, KPC-2, Tem-1, CMY-Type) | MIC alone ([18]; E. coli JMI 4103, enzyme KPC-2, Tem-1, CMY-Type)
0.06 µg/mL: MIC alone ([6]; E. coli ATCC 25922, enzyme Wt; substance alone) | MIC alone ([6]; E. coli ATCC 25922; enzyme Wt; substance alone)
32 µg/mL: MIC alone [12, 28] | MIC alone ([12]; K. pneumo JMI 2699, enzyme VIM-1, CTX-M3) | MIC alone ([24]; Enterobacter cloacae isolate 53477, NDM-1) | MIC alone ([24]; Escherichia coli isolate 17, NDM-1) | MIC alone ([24]; Klebsiella oxytoca isolate 24825, IMP-26) | MIC alone ([24]; Klebsiella pneumoniae isolate 38, NDM-1)
4 µg/mL: MIC alone ([9]; P. aerug JMI 149, Bla+++D+) | MIC alone ([9]; P. aerug JMI 149, enzyme Bla+++D+) | MIC alone ([24]; Enterobacter cloacae isolate 1874, IMP-21) | MIC alone ([24]; Escherichia coli isolate 13, IMP-1)
512 µg/mL: MIC alone [2, 25] | MIC alone ([2]; K. pneumo JMI 4088, enzyme KPC-3 (Cpase)) | MIC alone [21, 32] | MIC alone ([21]; P. aerug JMI 2686, enzyme KPC-2 (Cpase))
≤1 µg/mL: MIC alone ([1]; E. coli JMI 11103, CTX-M15 (Intermediate ESBL)) | MIC alone ([1]; E. coli JMI 11103, enzyme CTX-M15 (Intermediate ESBL)) | MIC alone [3, 26] | MIC alone ([3]; K. pneumo JMI 2674, enzyme CTX-M15 (ESBL)) | MIC alone ([4]; E. coli JMI 10770, CTX-M15 (Hyper ESBL)) | MIC alone ([4]; E. coli JMI 10770, enzyme CTX-M15 (Hyper ESBL)) | MIC alone ([5]; E. coli JMI 10768, CTX-M15 (Weak ESBL)) | MIC alone ([5]; E. coli JMI 10768, enzyme CTX-M15 (Weak ESBL)) | MIC alone ([7]; E. cloacae JMI 36, P99) | MIC alone ([7]; E. cloacae JMI 36, enzyme P99) | MIC alone ([8]; E. coli JMI 10767, Wt) | MIC alone ([8]; E. coli JMI 10767, enzyme Wt) | MIC alone ([19]; E. coli JMI 2665, CMY-2 (Plasmid Cpase)) | MIC alone ([19]; E. coli JMI 2665, enzyme CMY-2 (Plasmid Cpase)) | MIC alone [20, 31] | MIC alone ([20]; K. pneumo JMI 2673, enzyme CTX-M14 (ESBL)) | MIC alone ([22]; E. coli JMI 4080, Tem-10) | MIC alone ([22]; E. coli JMI 4080, enzyme Tem-10) | MIC alone [23, 33] | MIC alone ([23]; K. pneumo JMI 4109, enzyme SHV-1, SHV-12)
